These results are taken from BindingDB's records for patent US9102669 (Janssen Pharmaceutica, 2015).

The target of this experiment is T1, Acyl-CoA desaturase 1 (Rattus norvegicus, UniProt P07308).
T1 sequence (P07308 whole entry): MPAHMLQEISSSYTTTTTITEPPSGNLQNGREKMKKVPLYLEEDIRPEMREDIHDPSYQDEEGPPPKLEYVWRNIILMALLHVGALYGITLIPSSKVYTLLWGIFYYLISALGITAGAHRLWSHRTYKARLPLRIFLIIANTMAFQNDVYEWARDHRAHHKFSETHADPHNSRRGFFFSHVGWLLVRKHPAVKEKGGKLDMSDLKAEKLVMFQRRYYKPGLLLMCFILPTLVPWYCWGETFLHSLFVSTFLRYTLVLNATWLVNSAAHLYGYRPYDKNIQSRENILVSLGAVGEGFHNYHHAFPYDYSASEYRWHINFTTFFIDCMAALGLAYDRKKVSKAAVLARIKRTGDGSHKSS
The experiment is described as follows: Enzymatic Assay. Particulars: 25 °C. The procedure:
The SCD1 enzymatic assay was done in a volume of 50 μL using 10 μg of RLM (prepared as described above) in a 96-well polypropylene plate (enzyme reaction buffer contains 0.1 M K-Phosphate Buffer, 10 mM ATP, 6 mM MgCl2. 1 mM CoA, 1 mM β-NADH, 1.6 mM L-glutathione, 20 μM Stearoyl-CoA). […] Test compound was then added to the reaction mixture at the selected concentration. After incubation at room temperature for 2 hours, 5 μL 1 N HCl was added to stop the reaction, followed by addition of 25 μL of 10% charcoal. The reaction mixture was then transferred to 96-well Multiscreen plate (Millipore, Cat#MSFCN6B50).

Consider `Cn1cc(-c2ccc(N3CCC(N4CCc5c(Cl)cc(Cl)cc54)CC3)nn2)cn1` [US9102669, 68], for which the IC50 – broadly, the point on the concentration scale where inhibition reaches its midpoint – was above 1000 nM.
